Tested on: HepaRG
Experiment: LDH release cytotoxicity, % of total lysis control; higher = more cytotoxic
Settings: 48 h
Outline: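 Eight-point half-log series of test chemicals, the highest at 100 µM, were given in duplicate for 48 h to single-lot HepaRG cells on collagen I-coated 96-well plates in serum-free induction medium with 0.5% DMSO. A Tecan Safire read resorufin fluorescence from CytoTox-ONE as a measure of LDH in 50 µL spent medium, with 0.1% Triton X in total lysis wells. Percent cytotoxicity was normalized to on-plate vehicle and total lysis controls and averaged over the duplicates.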

Cn1cnc2c1c(=O)[nH]c(=O)n2C [Theobromine]
Settings | LDH release cytotoxicity [%]
0.0132816 µM | 0.266
0.042 µM | 0.527
0.132816 µM | 0.244
0.42 µM | -0.545
1.3281566 µM | 0.0875
4.2 µM | -0.226
13.281566 µM | -0.215
42 µM | 0.896

c1ccc(C2CO2)cc1 (configuration not stated) [Styrene oxide]
Settings | LDH release cytotoxicity [%]
0.03162 µM | -1.36
0.1 µM | -1.15
0.3162278 µM | -1.2
1 µM | -1.64
3.16228 µM | -1.36
10 µM | -0.823
31.6228 µM | -0.175
100 µM | 0.415

CC(Cl)(Cl)C(=O)O [Dalapon]
Settings | LDH release cytotoxicity [%]
0.03162 µM | -1.01
0.1 µM | -0.953
0.3162278 µM | -0.84
1 µM | -0.409
3.16228 µM | -0.505
10 µM | 0.644
31.6228 µM | 1.01
100 µM | 0.962

N#CC(Br)(Br)C(N)=O [2,2-Dibromo-3-nitrilopropionamide]
Settings | LDH release cytotoxicity [%]
0.0314647 µM | -1.52
0.0995 µM | -0.658
0.3146466 µM | -0.437
0.995 µM | -0.589
3.14647 µM | 0.314
9.95 µM | 0.381
31.4647 µM | -0.137
99.5 µM | 1.42

OCCOc1ccccc1 [2-Phenoxyethanol]
Settings | LDH release cytotoxicity [%]
0.03162 µM | -0.138
0.1 µM | -0.772
0.3162278 µM | -1.12
1 µM | -1.13
3.16228 µM | -1.12
10 µM | -1.27
31.6228 µM | -0.22
100 µM | 0.632

O=C(O)C1C2CCC(O2)C1C(=O)O (configuration not stated) [Endothal]
Settings | LDH release cytotoxicity [%]
0.03162 µM | -1.48
0.1 µM | -1.31
0.3162278 µM | -0.8
1 µM | -0.517
3.16228 µM | -1.16
10 µM | -1
31.6228 µM | 1.01
100 µM | 21.8

O=[N+]([O-])c1ccc(Oc2ccc(Cl)cc2Cl)cc1 [Nitrofen]
Settings | LDH release cytotoxicity [%]
0.03162 µM | 0.322
0.1 µM | -0.97
0.3162278 µM | -0.303
1 µM | -0.821
3.16228 µM | -0.947
10 µM | 0.734
31.6228 µM | 0.996
100 µM | 3.046

Nc1c(Cl)cc([N+](=O)[O-])cc1Cl [Dicloran]
Settings | LDH release cytotoxicity [%]
0.03162 µM | -0.748
0.1 µM | -1.57
0.3162278 µM | -1.57
1 µM | -2.63
3.16228 µM | -1.28
10 µM | -1.61
31.6228 µM | -0.997
100 µM | 0.0971

O=C(O)c1ccccc1-n1cc(C(=O)O)c(=O)c2cc(Nc3c(F)cc(F)cc3Cl)c(Cl)cc21 [AVE9423]
Settings | LDH release cytotoxicity [%]
0.03162 µM | -1.33
0.1 µM | -1.38
0.3162278 µM | -2.06
1 µM | -2.38
3.16228 µM | -2.31
10 µM | -2.38
31.6228 µM | -1.42
100 µM | -1.52

CCC(C)N(C)C(=O)c1cc2ccccc2c(-c2ccccc2Cl)n1 (configuration not stated)
Settings | LDH release cytotoxicity [%]
0.02008 µM | -1.37
0.0635 µM | -2.28
0.200805 µM | -3.22
0.635 µM | -3.04
2.00805 µM | -2.99
6.35 µM | -2.9
20.0805 µM | -1.43
63.5 µM | 7.06

CS(=O)(=O)NC(=O)c1cc(Oc2ccc(C(F)(F)F)cc2Cl)ccc1[N+](=O)[O-] [Fomesafen]
Settings | LDH release cytotoxicity [%]
0.03162 µM | -1.12
0.1 µM | -1.48
0.3162278 µM | 0.3
1 µM | -0.63
3.16228 µM | -0.773
10 µM | 0.708
31.6228 µM | 0.985
100 µM | 3.41

O=[N+]([O-])c1cc(C(F)(F)F)c(Cl)c([N+](=O)[O-])c1Nc1ncc(C(F)(F)F)cc1Cl [Fluazinam]
Settings | LDH release cytotoxicity [%]
0.03162 µM | -1.32
0.1 µM | -1.4
0.3162278 µM | -1.08
1 µM | -1.53
3.16228 µM | -1.12
10 µM | 0.179
31.6228 µM | 9.87
100 µM | 55.8

Cc1ccc(N(C)C)cc1 [N,N,4-Trimethylaniline]
Settings | LDH release cytotoxicity [%]
0.03162 µM | -1.35
0.1 µM | -2.34
0.3162278 µM | -1.31
1 µM | -1.01
3.16228 µM | -1.56
10 µM | -0.631
31.6228 µM | 0.0145
100 µM | 1.9

CC(C)(c1ccccc1)c1ccc(O)c(C(C)(C)c2ccccc2)c1 [2,4-Bis(1-methyl-1-phenylethyl)phenol]
Settings | LDH release cytotoxicity [%]
0.03162 µM | -0.358
0.1 µM | -1.13
0.3162278 µM | -0.577
1 µM | -1.2
3.16228 µM | -1.41
10 µM | -0.479
31.6228 µM | -0.0613
100 µM | 0.487

COC(=O)c1ccccc1C(=O)O [Monomethyl phthalate]
Settings | LDH release cytotoxicity [%]
0.031623 µM | -0.688
0.1 µM | -1.99
0.316228 µM | -2.92
1 µM | -2.55
3.16228 µM | -1.73
10 µM | -1.97
31.6228 µM | -0.563
100 µM | 0.422

CCCOC(=O)c1cc(O)c(O)c(O)c1 [Propyl gallate]
Settings | LDH release cytotoxicity [%]
0.031623 µM | 0.488
0.1 µM | -3.35
0.316228 µM | -3.75
1 µM | -4.27
3.16228 µM | -3.65
10 µM | -3.8
31.6228 µM | -4.52
100 µM | -3.34

O=C1CCCO1 [4-Butyrolactone]
Settings | LDH release cytotoxicity [%]
0.03162 µM | -0.251
0.1 µM | -0.513
0.3162278 µM | -0.359
1 µM | -0.517
3.16228 µM | -0.65
10 µM | 0.21
31.6228 µM | -0.668
100 µM | 1.06

COc1ccc(C(c2ccc(OC)cc2)C(Cl)(Cl)Cl)cc1 [Methoxychlor]
Settings | LDH release cytotoxicity [%]
0.0314647 µM | -0.145
0.0995 µM | -0.434
0.3146466 µM | -0.0516
0.995 µM | 0.115
3.14647 µM | 0.0841
9.95 µM | -0.153
31.4647 µM | 0.12
99.5 µM | 17

O=C(O)CC(O)C(=O)O (configuration not stated) [Malic acid]
Settings | LDH release cytotoxicity [%]
0.03162 µM | -1.2
0.1 µM | -1.77
0.3162278 µM | -1.39
1 µM | -1.28
3.16228 µM | -1.27
10 µM | -1.41
31.6228 µM | -1.33
100 µM | 0.326
